We go through 4 substances from patent publication US20240255515A1, “G4-SPECIFIC PEPTIDES AND METHODS OF IDENTIFYING THE SAME” (CITY UNIVERSITY OF HONG KONG, priority 2023, published 2024).

One may read the Kd as the constant that tells how readily two partners part at equilibrium.

The subject of assay [1] is hTERC rG4 WT construct in HeLa cells. The assay is described as follows: Dual-luciferase reporter gene assay, hTERC rG4 WT construct. The format is cell-based, human. To be noted: peptide 0, 100, 200 nM, 48 hours. As to the method:
(§1) Wild-type or mutant hTERC rG4 construct was inserted into the HSV-TK promoter at the SacII restriction enzyme site of firefly/renilla dual luciferase reporter vector, psiCHECK-2. Then, wild-type or mutant reporter plasmid was transfected into Hela cells together with peptides (0, 100, 200 nM) using nucleofector. Each well of the 96-well black-wall optical plate was transfected with 30 ng plasmids. The luciferase reporter gene assays were performed after 48 hours of incubation using the dual-luciferase reporter assay kit. The microplate reader was used to measure luciferase activities with renilla luciferase serving as an internal control. The ratio of firefly to renilla was calculated to analyze the data. Three replicates were performed for each measurement, and the error bar was plotted based on the standard deviation. The P-value was calculated using two-tailed unpaired Student's t-tests to evaluate the significance of the samples.
After confirming that the rG4-targeting peptides can interact with rG4 structures in live cells, their effect on modulating rG4-mediated gene expression was examined in the example. Dual luciferase reporter gene assay was conducted in HeLa cells, in which hTERC rG4 WT motif (SEQ ID NO: 12) or hTERC rG4 MUT motif (SEQ ID NO: 13) was inserted in the 5′ untranslated region (5′ UTR) of the renilla luciferase gene region separately, and the firefly luciferase gene was used as a normalized gene (FIG. 1).
On the technique in general: Reporter assays use an easily measured gene product as a stand-in for the process of interest.

Assay [2] concerns hTERC rG4. The assay is described as follows: Ligand-enhanced fluorescence assay. More on the design: species or system human. To be noted: 100 nM hTERC rG4. How it is done:
HTERC rG4 (100 nM) in Tris-HCl buffer (25 mM Tris-HCl, pH 7.5, 150 mM KCl, and 1 mM MgCl2) was heated at 95° C. for 3 minutes and cooled down at 25° C. for 10 minutes. 10 μL of the peptide and rG4 mixture were incubated for 30 minutes at room temperature. Fluorescence spectroscopy was performed using a microplate reader in 384 well plate. The samples were excited at 394 nm and the emission spectra were detected at 610 nm. The plot was carried out by software.

Assay [3] relates to rG4s, dG4s (c-MYC, c-kit1, HRAS-1, hTelo) and non-G4 targets (scramble G-rich sequence, DNA hairpin, RNA hairpin). Description: MST binding selectivity test with different rG4s, dG4s and non-G4 targets. To be noted: data not shown. How it is done: (§2) The RNA was subjected to heat treatment at 75° C. for 5 minutes followed by cooling down to room temperature for 10 minutes for renaturation purposes. For binding affinity and selectivity test, reaction mixtures containing 50 nM FAM-labelled RNA, 150 mM KCl, 1 mM MgCl2, 25 mM Tris-HCl (pH 7.5) and varying concentrations of peptide were prepared and incubated at 37° C. for 30 minutes. The samples were then loaded into MST capillary tubes, and the measurements were taken at 25° C. using blue light mode and the binding affinity mode. The data obtained from these measurements were analyzed using MST nano temper analysis (nta) analysis software. The curve fitting and dissociation constant (Kd) determination were carried out by software using the one site-specific binding model.

Assay [4] deals with 5' FAM, 3' TAMRA labelled hTERC rG4. Description: FRET melting assay. The format is binding, human. To be noted: increasing peptide concentration, 0-2 μM; 0.2 μM rG4. As to the method:
FRET-melting assay was performed with 5′ FAM, 3′ TAMRA labelled hTERC rG4. The oligonucleotides were prepared at 0.2 μM, and the peptides were prepared at 0, 0.2, 0.4, 1 or 2 μM final concentration. The samples were excited at 492 nm and the emission spectra were detected at 516 nm in a buffer containing 10 mM lithium cacodylate and 1 mM KCl. The rG4 was heated at 95° C. for 5 minutes and cooled down in room temperature to refold for 10 minutes before adding the peptides. The signal was monitored by real-time PCR detection system with a procedure of 30 minutes at 25° C., then an increase of 0.5° C. every minute until 95° C. Each experimental condition was tested in three duplicates in a volume of 25 μL for each sample. The data were blanked, averaged and smoothed over 2° C. The plot was carried out by software.

In assay [5] the target is hTERC rG4. Description: Microscale thermophoresis (MST) binding assay. More on the design: species or system human. Particulars: 50 nM FAM-labelled RNA, 150 mM KCl. As to the method: as §2
The test system of assay [6] is hTERC rG4 MUT construct in HeLa cells. The assay is described as follows: Dual-luciferase reporter gene assay, hTERC rG4 MUT construct. Particulars: peptide 0, 100, 200 nM, 48 hours. Type of assay: cell-based, human. As to the method: as §1
After confirming that the rG4-targeting peptides can interact with rG4 structures in live cells, their effect on modulating rG4-mediated gene expression was examined in the example. […]

For assay [7], the system named is hTERC rG4 WT in HeLa cells. Description: Cell imaging, co-transfection with hTERC rG4 WT. Type of assay: cell-based, human. Particulars: 5 hours post-transfection, data not shown. How it is done: (§3) HeLa cells were seeded on a 3.5 cm confocal dish 1 day before transfection. FAM-labelled hTERC rG4 was heated to 75° C. for 5 minutes, annealed at 25° C., and then co-transfected with TAMRA-labelled peptide using LIPOFECTAMINE® 2000. Five hours post-transfection, the cells were stained with 50 nM deep red-fluorescent dye (labeling and tracking acidic organelles in live cells) for 30 minutes and 5 μg/mL Hoechst dye (staining nucleic acid) for 15 minutes. The images were monitored using a laser confocal scanning microscope. Fluorescence statistics of cells were analyzed using software.

Assay [8] concerns hTERC rG4 MUT in HeLa cells. Description: Cell imaging, co-transfection with hTERC rG4 MUT. The format is cell-based, human. To be noted: 5 hours post-transfection, data not shown. How it is done:
as §3

The test system of a further assay is hTERC rG4 wild-type (WT). Description: Filter binding assay, hTERC rG4 wild-type. More on the design: species or system human. To be noted: data not shown. As to the method:
(§4) In the binding affinity and selectivity tests, reaction mixtures containing 5 nM biotin-labeled RNA, 25 mM Tris-HCl (pH 7.5), 150 mM KCl, 1 mM MgCl2 and varying concentrations of peptides were prepared in 50 μL and incubated at 37° C. for 30 minutes before loaded onto an apparatus containing a nitrocellulose membrane (top) and nylon membrane (bottom). The nylon membrane was rinsed with 0.5× Tris-borate-EDTA (TBE) buffer for 5 minutes, and the nitrocellulose membrane was rinsed with 0.5 M KOH for 15 minutes at 4° C. and then rinsed with 0.5×TBE buffer for one time prior to use. The membranes were washed with binding buffer for three times before and after applying the sample to the apparatus. The crosslinking step was carried out by exposing the membranes to UV irradiation at 254 nm, 120,000 microjoules/cm^2 for 5 minutes. The results were detected using a chemiluminescent nucleic acid detection module kit, and the scanned by an imaging system.

In another assay the test system is hTERC rG4 mutant (MUT). The assay is described as follows: Filter binding assay, hTERC rG4 mutant. More on the design: species or system human. To be noted: data not shown. As to the method: as §4

Like-named read-outs stand apart in the source and are kept apart here.

Turning to “RHAU53: positive control peptide reported to interact with rG4s; sequence SMHPGHLKGREIGMWYAKKQGQKNKEAERQERAVVHMDERREEQIVQLLNSVQA K (SEQ ID NO: 4) (SMHPGHLKGREIGMWYAKKQGQKNKEAERQERAVVHMDERREEQIVQLLNSVQAK)”, in [1], the “normalized luciferase activity, WT construct” value is “effects of both tandem and cyclic pep11 were comparable to that of RHAU53”. The “fluorescence signal / conformational change of G4 upon peptide binding” value with hTERC rG4 [2] is reported as “exhibited a similar result”.
Turning to “de novo G4-binding peptide with amino acid sequence TKRKHPHRRKYR (SEQ ID NO: 1) [pep11]”, the “binding selectivity among rG4s, dG4s and non-G4s” value in assay [3] was “only rG4s exhibited observable binding”. Further, the “melting temperature of hTERC rG4” value in [4] was “Higher melting temperatures”. In addition, the Kd on hTERC rG4 [5] (read-out: Kd, binding to hTERC rG4) worked out at 1370 ± 220 nM.
Turning to “pep71: negative control peptide with amino acid sequence AHPLTKPPKYHH (SEQ ID NO: 5) [reference compound]”, in assay [6], the “normalized luciferase activity, MUT construct” value is “did not impact”. The “normalized luciferase activity, WT construct” value in assay [1] is given as “did not impact”.
For “two pep11 domains linked by (GTGSGA)3: TKRKHPHRRKYRGTGSGAGTGSGAGTGSGATKRKHPHRRKYR (SEQ ID NO: 3) [tandem pep11]”, the “colocalization of TAMRA-labelled peptide with hTERC rG4 WT foci in live cells” value in assay [7] is “clear colocalization of TAMRA signals with the fluorescent foci”. Moreover, the “binding selectivity among rG4s, dG4s and non-G4s” value in assay [3] was “bound to other rG4s but not to non-G4s and weakly to dG4s”. The “foci in cells transfected with hTERC rG4 MUT” value in assay [8] was “few foci were observed”. In addition, in [1], the “normalized luciferase activity, WT construct” value is given as “the inhibition extended with increasing concentration”. Also, in the assay with hTERC rG4 wild-type (WT), the “binding to hTERC rG4 WT” value is on record as “bound to hTERC rG4 WT”. Besides, the “melting temperature of hTERC rG4” value in [4] is reported as “Higher melting temperatures”. Further, on hTERC rG4 [5] (read-out: Kd, binding affinity to hTERC rG4), the Kd was determined as 449 ± 62 nM. Moreover, the “binding to hTERC rG4 MUT” value in the assay with hTERC rG4 mutant (MUT) is reported as “not MUT”.
